Active and inactive are the calls of the source. No cut-off for these calls is given here.
Key:
Haemonchus contortus [1] = test: Nematocidal activity against Haemonchus contortus Haecon 5 strain isolated from helminth-free Merino weaner sheep after 6 days by larval development assay; assay type: functional; conditions: for LC50: Haemonchus contortus, Haecon 5 strain, 144 h, read-out: LD50 (the source's name)
[2] = Cytotoxicity against human HT-29 cells after 72 hrs by MTT assay; assay type: cell-based
[3] = Cytotoxicity against human SW480 cells after 72 hrs by MTT assay; assay type: cell-based
[4] = Cytotoxicity against human MCF7 cells after 72 hrs by MTT assay; assay type: cell-based
[5] = Cytotoxicity against human A2780 cells after 72 hrs by MTT assay; assay type: cell-based
[6] = Cytotoxicity against human H460 cells after 72 hrs by MTT assay; assay type: cell-based; conditions: NCI-H460 cells
[7] = Cytotoxicity against human A431 cells after 72 hrs by MTT assay; assay type: cell-based, A-431
[8] = Cytotoxicity against human DU145 cells after 72 hrs by MTT assay; assay type: cell-based, DU-145
[9] = Cytotoxicity against human BE(2)-C cells after 72 hrs by MTT assay; assay type: cell-based
[10] = Cytotoxicity against human SJ-G2 cells after 72 hrs by MTT assay; assay type: cell-based
Haemonchus contortus [11] = test: Nematocidal activity against Haemonchus contortus Haecon 5 strain isolated from helminth-free Merino weaner sheep at 12.5 to 100 uM after 6 days by larval development assay; assay type: functional, organism-based

Row | Structure (SMILES) | LD99 (Haemonchus contortus [1]) | LC50 (Haemonchus contortus [1]) | further results
1 | N#C/C(=C\c1ccc[nH]1)c1ccccc1 | 100 µM | 6 µM | –
2 | CCCCCCCCN1C(=O)[C@@H]2[C@H](C1=O)[C@H]1CC[C@@H]2O1 | 80 µM | 40 µM | –
3 | N#C/C(=C\c1ccc[nH]1)c1ccc(Cl)c(Cl)c1 | 12.5 µM | 7 µM | –
4 | CCCCCCCCCCN1C(=O)[C@@H]2[C@H](C1=O)[C@H]1CC[C@@H]2O1 | 90 µM | 30 µM | –
5 | N#C/C(=C\c1ccc[nH]1)c1ccc(F)cc1 | 50 µM | 10 µM | –
6 | N#C/C(=C\c1ccc[nH]1)c1ccc(Cl)cc1 | 25 µM | 10 µM | –
7 | O=C(O)C1C(C(=O)NCc2ccc(Cl)cc2)[C@H]2CC[C@@H]1O2 (some centres not stated) | – | – | GI50 at 72 h [2]: 10 µM; GI50 at 72 h [3]: 10 µM; GI50 at 72 h [4]: 10 µM; GI50 at 72 h [5]: 10 µM; GI50 at 72 h [6]: 10 µM; GI50 at 72 h [7]: 10 µM; GI50 at 72 h [8]: 10 µM; GI50 at 72 h [9]: 10 µM; GI50 at 72 h [10]: 10 µM; inhibition (Haemonchus contortus [11]): inactive

Reference: ChEMBL document CHEMBL1777719, “Norcantharidin analogues with nematocidal activity in Haemonchus contortus” (Bioorg Med Chem Lett, 2011)
